Values of other authors in patent publication US20240016170A1, “A ZINC FORTIFIED TEA COMPOSITION” (EKATERRA TEA MANUFACTURING USA LLC, priority 2020, published 2024).

Settings: water at 25° C.

[O]=[Zn] [zinc oxide]
solubility: 0.0004 g/100 g water
